We go through 5 molecules from PMC12169669, “Regio- and Stereoselective Synthesis of Nitro-fatty Acids as NRF2 Pathway Activators Working under Ambient or Hypoxic Conditions” (Journal of Medicinal Chemistry, 2025).

The series can be described thus: Cytotoxicity assay (sulforhodamine B, SRB). Format: cell-based. The conditions noted are these: mouse, mouse embryonic fibroblasts (MEFs; STO). Here is the method: For cytotoxicity experiments, mouse embryonic fibroblasts (MEFs; STO, 86032003, Sigma-Aldrich) were cultured in DMEM (41966-029, Thermo Fisher Scientific) + 5% FBS and were seeded at 10,000 cells per well in a 96-well plate and allowed to adhere for 8 h under atmospheric conditions. Plates were then placed in incubators with the specified oxygen concentrations (21%, 4%, or 1%) and incubated overnight. The following day, the medium was replaced with fresh medium (+5% FBS) adjusted to match the target oxygen concentrations and containing the test compounds (1–100 μM). After 24 h of incubation, adherent cells were stained using a modified sulforhodamine B (SRB) assay as described in. SRB was obtained from Sigma-Aldrich (S1402). Briefly, the medium was aspirated, and cells were fixed with 10% cold trichloroacetic acid. After washing twice with distilled water, the cells were stained with 0.1% SRB dissolved in 1% acetic acid. The cells were then washed 3–4 times with 1% acetic acid and allowed to dry. The stain was solubilized with 10 mM unbuffered TRIS base, and absorbance was measured at 540 nm (Infinite M200 Pro, Tecan, Austria). The cell viability of treated samples was calculated as a percentage of nontreated controls, and IC50 values were determined (see Statistics). According to the IC50 values, a nontoxic 2 μM concentration of NO2FAs was used in further in vitro experiments. For detailed results, see Supporting Information Figure S1 and Table S3. Values are presented as arithmetic means ± standard deviations (SD), unless otherwise specified. Half-maximal inhibitory concentration (IC50) values were calculated using four-parameter logistic regression (dose vs response). For Western blot analyses, one-way ANOVA with Dunnett’s multiple comparisons test was performed against control samples. The significance level was set at p < 0.05. Statistical analyses were conducted using GraphPad Prism v10.4 (GraphPad Software, www.graphpad.com). Statistical methods and the number of experiments are indicated in the figure legends. page 9: Supporting information S9 Cytotoxicity of tested NO2FA derivatives (Figure S1) 1 10 100 0 50 100 150 21% O2 Concentration (µM) % of control 1 10 100 0 50 100 150 4% O2 Concentration (µM) % of control 1 10 100 0 50 100 150 1% O2 Concentration (µM) % of control 10-NO2OA 9-NO2OA 10-NO2LA 9-NO2cLA 10-NO2SA A B C Figure S 1. Cytotoxicity of tested NO2FA derivatives. Mouse embryonic fibroblasts (MEFs) were cultured under varying oxygen conditions (21, 4, and 1%) and treated for 24 hours with the tested NO₂FAs, after which adherent cells were stained with sulforhodamine B. Results are presented as a percentage of control cells across different oxygen culture conditions (A–C). IC₅₀ values were determined from dose-response curves (see Supplementary Table S3). Data are expressed as mean ± SD from three independent experiments (n = 3). (1 picture or pasted object on this page, not shown here) page 11: Supporting information Calculated IC50 values of tested NO2FA derivatives (Table S3) Table S 3. Calculated IC50 values of tested NO2FA derivatives. IC 21% O2 4% O2 1% O2 50 Value SEM Value SEM Value SEM 10-NO2OA 6.28 0.19 5.74 0.20 8.19 0.21 9-NO2OA 9.47 0.57 7.75 0.54 6.93 0.32 10-NO2LA 11.78 0.41 11.17 0.26 13.79 1.02 9-NO2cLA 18.03 1.96 17.19 2.26 14.31 1.82 10-NO2SA ≈100 >100 >100 IC₅₀ values were derived from dose-response curves using four-parameter logistic regression across different oxygen culture conditions. Data are presented as mean and SEM values from three independent experiments (n = 3). The IC₅₀ values calculated for cultures in 21% oxygen indicate an increasing cytotoxic potential in the order: 10-NO₂OA > 9-NO₂OA > 10-NO₂LA > 9-NO₂cLA. […] In 1% oxygen, the order of cytotoxic potential shifted slightly to 9-NO₂OA > 10-NO₂OA > 10-NO₂LA > 9-NO₂cLA. However, differences in IC₅₀ values across the oxygen conditions for each NO₂FA derivative ranged from ca. 1 to 3 µM. […]

Usually IC50 stands for the concentration that gives 50% inhibition. Low values mean greater potency in that assay, high ones weaker potency in that assay.

Turning to `CCCCCCCC/C=C(\CCCCCCCC(=O)O)[N+](=O)[O-]` [9-NO2OA, (9E)-9-Nitro-oleic Acid], the IC50 at 24 h turned out to be 6.93 ± 0.32 µM (1% O2), 7.75 ± 0.54 µM (4% O2) and 9.47 ± 0.57 µM (21% O2).
`CCCCC/C=C\C/C(=C\CCCCCCCC(=O)O)[N+](=O)[O-]` [10-NO2LA, (9E,12Z)-10-Nitro Linoleic Acid]: the half-inhibitory concentration (IC50) at 24 h by setting is: (1% O2) 13.8 ± 1.02 µM; (4% O2) 11.2 ± 0.26 µM; (21% O2) 11.8 ± 0.41 µM.
With `CCCCCCCCC(CCCCCCCCC(=O)O)[N+](=O)[O-]` (stereo not shown) [10-NO2SA, 10-Nitro Stearic acid], the IC50 at 24 h was over 100 µM (1% O2); over 100 µM (4% O2); about 100 µM (21% O2); at least 100 µM (under all three oxygen conditions (21, 4, 1%)).
Consider `CCCCCCCC/C(=C\CCCCCCCC(=O)O)[N+](=O)[O-]` [10-NO2OA, (9E)-10-Nitro-oleic Acid], for which the half-maximal inhibitory concentration (IC50) at 24 h reads like this: (1% O2) 8.19 ± 0.21 µM; (4% O2) 5.74 ± 0.2 µM; (21% O2) 6.28 ± 0.19 µM.
As to `CCCCCC/C=C/C=C(\CCCCCCCC(=O)O)[N+](=O)[O-]` [9-NO2cLA, (9E,11E)-9-Nitro Conjugated Linoleic Acid], the IC50 at 24 h turned out to be 14.3 ± 1.82 µM (1% O2), 17.2 ± 2.26 µM (4% O2) and 18 ± 1.96 µM (21% O2).
